Assay results from patent publication US9150638B2, “Factor XII inhibitors for treating interstitial lung disease” (Justus-Liebig-Universität Giessen, priority 2010, dated 2015).

Assays:
[1] = molecular target: T1, FXIIa (Homo sapiens, UniProt P00748); conditions: cited from earlier work
T1 sequence (P00748 373-615 limits assumed): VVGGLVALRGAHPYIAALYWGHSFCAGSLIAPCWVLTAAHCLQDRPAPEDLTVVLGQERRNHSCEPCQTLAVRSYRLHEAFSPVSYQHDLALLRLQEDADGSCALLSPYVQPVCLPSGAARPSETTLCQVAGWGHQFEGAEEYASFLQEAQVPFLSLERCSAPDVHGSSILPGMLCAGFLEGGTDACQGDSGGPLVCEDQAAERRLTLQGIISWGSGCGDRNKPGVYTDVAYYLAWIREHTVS
T1 sequence (P00748 20-372 partner limits assumed): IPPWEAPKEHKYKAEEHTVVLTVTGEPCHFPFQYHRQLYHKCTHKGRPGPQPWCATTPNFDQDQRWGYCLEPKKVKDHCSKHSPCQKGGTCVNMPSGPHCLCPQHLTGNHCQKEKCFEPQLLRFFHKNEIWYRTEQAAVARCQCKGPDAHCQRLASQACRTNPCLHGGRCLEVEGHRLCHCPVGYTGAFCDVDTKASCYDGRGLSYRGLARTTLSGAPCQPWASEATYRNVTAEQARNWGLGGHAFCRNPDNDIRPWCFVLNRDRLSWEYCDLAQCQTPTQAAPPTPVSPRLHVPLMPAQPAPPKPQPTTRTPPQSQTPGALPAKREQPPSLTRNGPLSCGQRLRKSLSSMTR

[2] = system: Smad 3; assay: TGF-β1 driven translocation of phospho-Smad 3 to the nucleus in HLF; type: cell-based, human
Protocol: Proteins separated on SDS polyacrylamide gel were transferred to a PVDF membrane (Amersham Biosciences, Freiburg, Germany) using wet transfer technique in transfer buffer (25 mM Tris, 192 mM Glycine, 20% (v/v) Methanol) for 1 h at 100V. After blocking with 5% non-fat dry milk in tris-buffered saline (TBS; 25 mM Tris-Cl, 150 mM NaCl, pH 7.5) containing 0.1% (v/v) Tween 20 (TBS-T), the membranes were incubated at 4° C. overnight with appropriate primary antibody diluted in 1% BSA in TBS-T. After 1 h incubation with peroxidase-labelled secondary antibody (all from Dako, Gostrup, Denmark) proteins were detected using ECL Plus Kit (Amersham Biosciences, Freiburg, Germany). To determine the amounts of protein loaded on the gel, blots were in 1 hour (stripping buffer: 100 mM Glycine, 1% HCl) and reprobed using an anti-β-actin or appropriate anti-pan antibody. […]
[…]. […] After boiling, the DNA-bound proteins were analyzed by Western blot using rabbit anti-phospho Smad 3 antibody (Cell Signaling). […]

[3] = system: JNK; assay: Western blot of JNK activity in TGF-β1 treated HLF; type: cell-based, human
[4] = system: FXII; assay: TGF-β1-induced FXII expression in HLF; type: cell-based, human; conditions: HLF treated with inhibitor 1 h prior to TGF-β1 for 48 h
Protocol: Human lung specimens of the pulmonary parenchyma and mouse lungs were chopped into <1 mm^3 pieces. The minced pieces were washed twice with PBS and then plated in 100-mm dishes (Greiner-bio-one, Frickenhausen, Germany). The specimens were cultured with Dulbecco's modified Eagle's medium (DMEM; Invitrogen, Karlsruhe, Germany) supplemented with 10% fetal calf serum (FCS; HyClone, South Logan, UT), and 1% penicillin/streptomycin (Invitrogen) in humidified atmosphere of 5% CO2 at 37° C. Purity of isolated fibroblasts was verified by positive staining for vimentin, fibronectin and collagen IV. All experiments were carried out with lung fibroblasts from passages 3-4. The mouse NIH3T3 fibroblasts were cultured in DMEM supplemented with 10% FCS, and 1% penicillin/streptomycin in humidified atmosphere of 5% CO2 at 37° C.
(§1) Proteins separated on SDS polyacrylamide gel were transferred to a PVDF membrane (Amersham Biosciences, Freiburg, Germany) using wet transfer technique in transfer buffer (25 mM Tris, 192 mM Glycine, 20% (v/v) Methanol) for 1 h at 100V. After blocking with 5% non-fat dry milk in tris-buffered saline (TBS; 25 mM Tris-Cl, 150 mM NaCl, pH 7.5) containing 0.1% (v/v) Tween 20 (TBS-T), the membranes were incubated at 4° C. overnight with appropriate primary antibody diluted in 1% BSA in TBS-T. After 1 h incubation with peroxidase-labelled secondary antibody (all from Dako, Gostrup, Denmark) proteins were detected using ECL Plus Kit (Amersham Biosciences, Freiburg, Germany). To determine the amounts of protein loaded on the gel, blots were in 1 hour (stripping buffer: 100 mM Glycine, 1% HCl) and reprobed using an anti-β-actin or appropriate anti-pan antibody.
Pre-designed, commercially available siRNA sequences directed against human Smad 3 (Dharmacon, Chicago, Ill.), human JNK1 (Abnova, Heidelberg, Germany), and an universal negative-control siRNA (Ambion, Austin, Tex.) were employed. Cells were treated with siRNA (250 nM each) using the X-treme Gene siRNA Transfection Reagent (Roche). The siRNA-mediated downregulation of the target genes was assessed 72 h after transfection by Western blotting.

[5] = system: Smad 3-SBE-272; assay: ChIP of the Smad 3-SBE-272 complex; type: cell-based, human
Protocol: ChIP was performed using Chromatin Immunoprecipitation Assay Kit from Millipore (Schwalbach, Germany) according to manufacturer's instruction. […] The cross-linked chromatin was then prepared and sonicated to an average size of 500-800 bp. The DNA fragments were immunoprecipitated with rabbit anti-Smad 3 antibody (Cell Signaling) or IgG isotype control overnight at 4° C. After reversal of cross-linking, the immunoprecipitated chromatin was amplified by PCR using following primers: human FXII-299 bp forward: [NT] ID NO:25); human FXII-299 bp reverse: [NT] ID NO:26).

[6] = system: FXII promoter; assay: FXII promoter luciferase assay in NIH3T3 cells; conditions: pGL3-299 construct; inhibitor 1 h prior to 10 ng/ml TGF-β1
[7] = system: Smad 3; assay: Western blot of Smad 3 phosphorylation in TGF-β1 treated HLF; type: cell-based, human
Protocol: as §1

Compound | prolonging activated partial thromboplastin time [1] | TGF-β1-induced Smad 3 translocation to the nucleus ([2]; HLF pretreated with inhibitor, TGF-β1 1 h) | accumulation of Smad 3 in the nucleus, inhibitor alone ([2]; HLF, without TGF-β1, data not shown) | JNK activity / JNK1 phosphorylation in response to TGF-β1 [3] | FXII expression in response to TGF-β1 (Western blot) [4] | TGF-β1 induced Smad 3-DNA complex formation (ChIP) ([5]; HLF pretreated with inhibitor 1 h prior to TGF-β1) | interaction of Smad3 with DNA, inhibitor alone ([5]; without TGF-β1, data not shown) | TGF-β1 driven luciferase activity [6] | Smad 3 phosphorylation in response to TGF-β1 [7]
Infestin-4: Kazal-type serine protease inhibitor domain 4 from Triatoma infestans, FXIIa inhibitor (SEQ ID NO: 33) (EVRNPCACFRNYVPVCGSDGKTYGNPCMLNCAAQTKVPGLKLVHEGRC; Triatoma infestans) | approximately three-fold |  |  |  |  |  |  |  | 
NC(=O)c1ccc(-c2nc(-c3ccc4c(c3)OCO4)c(-c3ccccn3)[nH]2)cc1 [SB431542] |  | completely blocks | did not affect | attenuated | reduction of FXII expression | completely abolished | did not affect | strongly reduced | attenuated
